Paper PMC11151858 (RSC Chemical Biology, 2024)

What follows are compounds tested on wild-type progesterone receptor (pSG5-Gal4-DBD-PR) and its mutants. Conditions: not given.
Type: cell-based
`CC(=O)[C@H]1CC[C@H]2[C@@H]3CCC4=CC(=O)CC[C@]4(C)[C@H]3CC[C@]12C` [STR, Progesterone] was tested, and the “activity in PR mutants as compared to wild-type PR” value was “lowered in all mutants”.
In the case of `C[C@@H]1C[C@H]2[C@@H]3CCC4=CC(=O)C=C[C@]4(C)[C@@]3(F)[C@@H](O)C[C@]2(C)[C@@]1(O)C(=O)CO` [DEX, Dexamethasone], the “activity in PR mutants as compared to wild-type PR” value is reported as “lowered below DMSO control by most mutations”.

Same assay, conditions: HeLa, Gal4-DBD-PR LBD mutants; ligand 10 μM
With `C[C@]12CCC(=O)C=C1CC[C@@H]1[C@@H]2[C@@H](O)C[C@]2(C=O)[C@@H](C(=O)CO)CC[C@@H]12` [AS4, Aldosterone] the “activity in PR mutants as compared to wild-type PR, high ligand concentration” value was “reduced activity”.
`C[C@]12C=CC(=O)C=C1CC[C@@H]1[C@@H]2C(=O)C[C@@]2(C)[C@H]1CC[C@]2(O)C(=O)CO` [PDN, Prednisone] was tested, and the “activity in PR mutants as compared to wild-type PR, high ligand concentration” value was “additional reduction”.
For `C[C@]12CCC(=O)C[C@@H]1CC[C@@H]1[C@@H]2CC[C@]2(C)[C@@H](O)CC[C@@H]12` [DHT, Dihydrotestosterone], the “activity in PR mutants as compared to wild-type PR, high ligand concentration” value was “reduced activity”.
`C[C@]12CCC(=O)C=C1CC[C@@H]1[C@@H]2[C@@H](O)C[C@@]2(C)[C@H]1CC[C@]2(O)C(=O)CO` [HCY, Cortisol] was tested, and the “activity in PR mutants as compared to wild-type PR, high ligand concentration” value was “reduced activity”.
